The term EC50 denotes the concentration that produces a half-maximal response. A higher EC50 goes with weaker potency.

The subject of one assay is HCV genotype 1b replicon. Kind of assay: HCV replicon assay, genotype 1b. It counts as cell-based, hepatitis C virus. The settings on record: Hepatitis C virus; genotype 1b replicon cells, 24 to 72 hours incubation, luciferase activity. The procedure: The HCV replicons and NS5A inhibitory activity of the present compounds may be tested using assays known in the art. HCV inhibitors, such as those described in the Examples herein have activities in genotype 1b, 2a and 1a replicon assays of from about 1 pM to about 1 μM. The assay is performed by incubating a replicon harboring cell-line in the presence of inhibitor for a set period of time and measuring the effect of the inhibitor on HCV replicon replication either directly by quantifying replicon RNA level, or indirectly by measuring enzymatic activity of a co-encoded reporter enzyme such as luciferase or β-lactamase. By performing a series of such measurements at different inhibitor concentrations, the effective inhibitory concentration of the inhibitor (EC50 or EC90) is determined. See Jan M. Vrolijk et al., A replicons-based bioassay for the measurement of interferons in patients with chronic hepatitis C, 110 J. VIROLOGICAL METHODS 201 (2003). Such assays may also be run in an automated format for high through-put screening. See Paul Zuck et al., A cell-based β-lactamase reporter gene assay for the identification of inhibitors of hepatitis C virus replication, 334 ANALYTICAL BIOCHEMISTRY 344 (2004).
Measurement of inhibition by compounds was performed using the HCV replicon system. Several different replicons encoding different HCV genotypes or mutations were used. In addition, potency measurements were made using different formats of the replicon assay, including different ways of measurements and different plating formats. See Jan M. Vrolijk et al., A replicons-based bioassay for the measurement of interferons in patients with chronic hepatitis C, 110 J. VIROLOGICAL METHODS 201 (2003); Steven S. Carroll et al., Inhibition of Hepatitis C Virus RNA Replication by 2′-Modified Nucleoside Analogs, 278(14) J. BIOLOGICAL CHEMISTRY 11979 (2003). However, the underlying principles are common to all of these determinations, and are outlined below.
Stable neomycin phosphotransferase encoding replicon-harboring cell lines were used, so all cell lines were maintained under G418 selection prior to the assay. In some cases, the cell lines encoded a luciferase:Neor fusion and could be assayed either directly by determination of RNA copy number, or indirectly through measurement of the luciferase activity.
To initiate an assay, replicon cells were plated in the presence of a dilution series of test compound in the absence of G418. Typically, the assays were performed in a 96-well plate format for manual operation, or a 384-well plate in an automated assay. Replicon cells and compound were incubated for 24 to 72 hours. At the end of the assay, cells are washed free of media and compound and then lysed. Luciferase activity was measured using a conventional luciferase assay. EC50 determinations were calculated as a percent of a DMSO control by fitting the data to a four parameter fit function.
The activity table below provides representative data illustrating observed activity against genotype 1b.
(In general: Replicon systems follow genome replication, usually without infectious particles.)
The molecule `O=C(Nc1ccc(-c2cc3nc(NC(=O)[C@@H]4CCCN4C(=O)Cc4ccccc4)ccc3[nH]2)cc1)[C@@H]1CCCN1C(=O)Cc1ccccc1` [Example 2, (2S)-1-(phenylacetyl)-N-{2-[4-({[(2S)-1-(phenylacetyl)pyrrolidin-2-yl]carbonyl}amino)phenyl]-1H-pyrrolo[3,2-b]pyridin-5-yl}pyrrolidine-2-carboxamide] returned an EC50 of 9000 pM.

With `O=C(Nc1ccc(-c2[nH]c3ncc(NC(=O)[C@@H]4CCCN4C(=O)Cc4ccccc4)cc3c2Cl)cc1)[C@@H]1CCCN1C(=O)Cc1ccccc1` [Example 6, (2S)—N-{3-chloro-2-[4-({[(2S)-1-(phenylacetyl)pyrrolidin-2-yl]carbonyl}amino)phenyl]-1H-pyrrolo[2,3-b]pyridin-5-yl}-1-(phenylacetyl)pyrrolidine-2-carboxamide], the EC50 came to 200000 pM.

For the molecule `CC(C)(C)OC(=O)N[C@H](C(=O)N1CCC[C@H]1C(=O)Nc1ccc(-c2nc3cc(NC(=O)[C@@H]4CCCN4C(=O)[C@@H](NC(=O)OC(C)(C)C)c4ccccc4)ccc3[nH]2)cc1)c1ccccc1` [Example 14, tert-butyl {(1S)-2-[(2S)-2-({4-[5-({[(2S)-1-{(2S)-2-[(tert-butoxycarbonyl)amino]-2-phenylacetyl}pyrrolidin-2-yl]carbonyl}amino)-1H-benzimidazol-2-yl]phenyl}carbamoyl)pyrrolidin-1-yl]-2-oxo-1-phenylethyl}carbamate], the half-maximal effective concentration (EC50) was determined as 10000 pM.

`CC(C)(C)OC(=O)N[C@@H](C(=O)N1CCC[C@H]1C(=O)Nc1ccc(-c2nc3cc(NC(=O)[C@@H]4CCCN4C(=O)[C@H](NC(=O)OC(C)(C)C)c4ccccc4)ccc3[nH]2)cc1)c1ccccc1` [Example 15, tert-butyl {(1R)-2-[(2S)-2-({4-[5-({[(2S)-1-{(2R)-2-[(tert-butoxycarbonyl)amino]-2-phenylacetyl}pyrrolidin-2-yl]carbonyl}amino)-1H-benzimidazol-2-yl]phenyl}carbamoyl)pyrrolidin-1-yl]-2-oxo-1-phenylethyl}carbamate] gave an EC50 of 45 pM.

In the case of `CC(=O)Nc1ccc(-c2cc3cc(NC(=O)[C@@H]4CCCN4C(=O)[C@H](NC(=O)OC(C)(C)C)c4ccccc4)ccc3o2)cc1` [Example 19, N-{2-[4-(acetylamino)phenyl]-1-benzofuran-5-yl}-1-{(2R)-2-[(tert-butoxycarbonyl)amino]-2-phenylacetyl}-L-prolinamide], the midpoint of the response, the EC50, lay at 25000 pM.

For `CCN(CC)[C@@H](C(=O)N1CCC[C@H]1C(=O)Nc1ccc(-c2cc3cc(NC(=O)[C@@H]4CCCN4C(=O)[C@@H](c4ccccc4)N(CC)CC)ccc3o2)cc1)c1ccccc1` [Example 26, (2S)-1-[(2R)-2-(diethylamino)-2-phenylacetyl]-N-(4-{5-[({(2S)-1-[(2R)-2-(diethylamino)-2-phenylacetyl]pyrrolidin-2-yl}carbonyl)amino]-1-benzofuran-2-yl}phenyl)pyrrolidine-2-carboxamide], the EC50 was 63 pM.

With `CCN(CC)[C@@H](C(=O)N1CCC[C@H]1C(=O)Nc1ccc2oc(-c3ccc(NC(C)=O)cc3)cc2c1)c1ccccc1` [Example 30], the EC50 is 26000 pM.

With `O=C(Nc1ccc2[nH]c(-c3cc4cc(NC(=O)[C@@H]5CCCN5C(=O)Cc5ccccc5)ccc4[nH]3)cc2c1)[C@@H]1CCCN1C(=O)Cc1ccccc1` [Example 39, (2S,2′S)—N,N′,1H,1′H-2,2′-biindole-5,5′-diylbis[1-(phenylacetyl)pyrrolidine-2-carboxamide]], the half-maximal effective concentration (EC50) was determined as 240 pM.

Molecule `CC(C)(C)OC(=O)N[C@@H](C(=O)N1CCCC1C(=O)Nc1ccc2[nH]c(-c3cc4cc(NC(=O)[C@@H]5CCCN5C(=O)[C@H](NC(=O)OC(C)(C)C)c5ccccc5)ccc4[nH]3)cc2c1)c1ccccc1` (stereo partly drawn) [Example 40] registered an EC50 of 26 pM.

In the case of `CC(C)(C)OC(=O)N[C@@H](C(=O)N1CCC[C@H]1C(=O)Nc1ccc2[nH]c(-c3ccc(NC(=O)[C@@H]4CCCN4C(=O)Cc4ccccc4)cc3)cc2c1)c1ccccc1` [Example 41], a half-maximal effect (EC50) was put at 50 pM.

For the molecule `O=C(Nc1cnc(-c2cc3cc(NC(=O)[C@@H]4CCCN4C(=O)Cc4ccccc4)ccc3[nH]2)nc1)[C@@H]1CCCN1C(=O)Cc1ccccc1` [Example 42], a half-maximal response (EC50) required 14000 pM.

The molecule `O=C(Nc1ccc(-c2cc3cc(NC(=O)[C@@H]4CCCN4C(=O)[C@@H](c4ccccc4)N4CCCC4)ccc3[nH]2)cc1)[C@@H]1CCCN1C(=O)[C@@H](c1ccccc1)N1CCCC1` [Example 45, (2S)-1-[(2R)-2-phenyl-2-(pyrrolidin-1-yl)acetyl]-N-(4-{5-[({(2S)-1-[(2R)-2-phenyl-2-(pyrrolidin-1-yl)acetyl]pyrrolidin-2-yl}carbonyl)amino]-1H-indol-2-yl}phenyl) pyrrolidine-2-carboxamide] showed an EC50 of 20 pM.

In the case of `O=C(Nc1ccc(-c2cc3cc(NC(=O)[C@@H]4CCCN4C(=O)C(Cc4ccccc4)c4ccccc4)ccc3[nH]2)cc1)[C@@H]1CCCN1C(=O)C(Cc1ccccc1)c1ccccc1` (stereo partly drawn) [Example 49], the midpoint of the response, the EC50, lay at 72 pM.

On to `CC(=O)Nc1ccc(-c2cc3cc(NC(=O)[C@@H]4CCCN4C(=O)[C@@H](c4ccccc4)N4CCCC4)ccc3[nH]2)cc1` [Example 58, N-{2-[4-(acetylamino)phenyl]-1H-indol-5-yl}-1[(2R)-2-phenyl-2-(pyrrolidin-1-yl)acetyl]-L-prolinamide], for which the response was half-maximal at 970 pM (EC50).

The molecule `O=C(Nc1ccc(-c2cc3cc(NC(=O)[C@@H]4CCCN4C(=O)[C@@H](c4ccccc4)N4CCCCC4)ccc3[nH]2)cc1)[C@@H]1CCCN1C(=O)[C@@H](c1ccccc1)N1CCCCC1` [Example 60, (2S)-1-[(2R)-2phenyl-2-(piperidin-1-yl)acetyl]-N-(4-{5-[({(2S)-1-[(2R)-2-phenyl-2-(piperidin-1-yl)acetyl]pyrrolidin-2-yl}carbonyl)amino]-1H-indol-2-yl}phenyl)pyrrolidine-2-carboxamide] registered an EC50 of 130 pM.

As for `CCN(CC)[C@@H](C(=O)N1CCC[C@H]1C(=O)Nc1ccc(-c2cc3cc(NC(=O)[C@@H]4CCCN4C(=O)[C@@H](c4ccccc4)N(CC)CC)ccc3[nH]2)cc1)c1ccccc1` [Example 62, (2S)-1-[(2R)-2-(diethylamino)-2-phenylacetyl]-N-(4-{5-[({(2S)-1-[(2R)-2-(diethylamino)-2-phenylacetyl]pyrrolidin-2-yl}carbonyl)amino]-1H-indol-2-yl}phenyl)pyrrolidine-2-carboxamide], the EC50 was determined as 67 pM.

Take `CN(C)[C@@H](C(=O)N1CCC[C@H]1C(=O)Nc1ccc2c(c1)CCc1c-2[nH]c2ccc(NC(=O)[C@@H]3CCCN3C(=O)[C@@H](c3ccccc3)N(C)C)cc12)c1ccccc1` [Example 94, (2S,2′S)-N,N′-6,11-dihydro-5H-benzo[a]carbazole-3,8-diylbis{1-[(2R)-2-(dimethylamino)-2-phenylacetyl]pyrrolidine-2-carboxamide}]: it took 6 pM to reach a half-maximal effect (EC50).

`CN(C)[C@@H](C(=O)N1CCC[C@H]1C(=O)Nc1ccc2c(c1)CCCc1c-2[nH]c2ccc(NC(=O)[C@@H]3CCCN3C(=O)[C@@H](c3ccccc3)N(C)C)cc12)c1ccccc1` [Example 95, (2S,2′S)-N,N′-5,6,7,12-tetrahydrobenzo[6,7]cyclohepta[1,2-b]indole-3,9-diylbis{1-[(2R)-2-(dimethylamino)-2-phenylacetyl]pyrrolidine-2-carboxamide}] displayed an EC50 of 10 pM.

Take `CC(C)(C)CC(=O)N[C@H](C(=O)N1CCC[C@H]1C(=O)Nc1ccc2c(c1)CCc1c-2[nH]c2ccccc12)c1ccccc1` [Example 96, N-(6,11-dihydro-5H-benzo[a]carbazol-3-yl)-1-{(2S)-2-[(3,3-dimethylbutanoyl)amino]-2-phenylacetyl}-L-prolinamide]: the EC50 turned out to be 15 pM.

`CC(C)(C)OC(=O)N[C@@H](C(=O)N1CCC[C@H]1C(=O)Nc1ccc2[nH]c(-c3ccc(-c4cnc([C@@H]5CCCN5C(=O)[C@H](NC(=O)OC(C)(C)C)c5ccccc5)[nH]4)cc3)cc2c1)c1ccccc1` [Example 99, tert-butyl {(1R)-2-[(2S)-2-(5-{4-[5-({[(2S)-1-{(2R)-2-[(tert-butoxycarbonyl)amino]-2-phenylacetyl}pyrrolidin-2-yl]carbonyl}amino)-1H-indol-2-yl]phenyl}-1H-imidazol-2-yl)pyrrolidin-1-yl]-2-oxo-1-phenylethyl}carbamate] returned an EC50 of 38 pM.

The same assay, now with this note: genotype 1b replicon cells, 24 to 72 hours incubation, luciferase activity.
`CN(C)[C@@H](C(=O)N1CCC[C@H]1C(=O)Nc1ccc2[nH]c(-c3ccc(NC(=O)[C@@H]4CCCN4C(=O)[C@H]4CCCO4)cc3)cc2c1)c1ccccc1` [Example 72] returned a half-maximal effective concentration (EC50) of 170 pM.

The values above are taken from patent US11053243B2 (Merck Sharp & Dohme Corp., priority 2009, dated 2021).
